Calls of active or inactive are those of the source. The rule behind the calls is not given here.
What was measured:
MDA-MB-231 [1] = test: Antimigratory activity against human MDA-MB-231 cells assessed as wound closure at 0.4 uM measured after 48 hrs by cell scratch assay (reference value: 30.3%); assay type: functional
SH-SY5Y [2] = test: Potency index, ratio of crizotinib IC50 to test compound IC50 for human SH-SY5Y cells harboring ALK F1174L mutant assessed as inhibition of cell proliferation measured after 72 hrs by CCK8 assay; assay type: functional
[3] = AUC (0 to infinity) in Sprague-Dawley rat at 1 mg/kg, iv measured for 12 hrs by LC-MS/MS analysis; assay type: ADME, organism-based; set-up: route intravenous, dose 1 mg/kg, time 12 hrs; conditions: in vivo
Homo sapiens [4] = species: Homo sapiens; test: Inhibition of human CDK at 1 uM
MDA-MB-231 [5] = test: Potency index, ratio of crizotinib IC50 to test compound IC50 for human MDA-MB-231 cells assessed as inhibition of cell proliferation measured after 72 hrs by CCK8 assay; assay type: functional
MDA-MB-231 [6] = test: Inhibition of colony formation in human MDA-MB-231 cells at 0.1 to 0.4 uM incubated for 3 days followed by incubation in drug-free medium for 12 days by crystal violet staining based assay; assay type: functional, cell-based; conditions: dose 0.1-0.4 µM, time 3.0 day
SH-SY5Y [7] = test: Induction of apoptosis in human SH-SY5Y cells assessed as necrotic cells at 1 uM measured after 24 hrs by Annexin V-FITC/PI staining based flowcytometry (reference value: 7.81%); assay type: functional
MDA-MB-231 [8] = test: Induction of apoptosis in human MDA-MB-231 cells assessed as orange-red fluorescence intensity at 1 to 4 uM measured after 24 hrs by AO/EB staining based fluorescence microscopy; assay type: functional, cell-based; conditions: dose 1-4 µM
MDA-MB-231 [9] = test: Induction of apoptosis in human MDA-MB-231 cells assessed as early apoptotic cells at 2 uM measured after 24 hrs by Annexin V-FITC/PI staining based flowcytometry (reference value: 0.64%); assay type: functional
[10] = target: Insulin receptor (Homo sapiens) (UniProt P06213); test: Inhibition of human InsR at 1 uM
NCI-H2228 [11] = test: Potency index, ratio of crizotinib IC50 to test compound IC50 for human NCI-H2228 cells harboring EML4/ALK […] assessed as inhibition of cell proliferation measured after 72 hrs by CCK8 assay; assay type: functional
[12] = target: T1, ALK tyrosine kinase receptor (Homo sapiens, UniProt Q9UM73)
Target sequence in this assay (Q9UM73 whole entry): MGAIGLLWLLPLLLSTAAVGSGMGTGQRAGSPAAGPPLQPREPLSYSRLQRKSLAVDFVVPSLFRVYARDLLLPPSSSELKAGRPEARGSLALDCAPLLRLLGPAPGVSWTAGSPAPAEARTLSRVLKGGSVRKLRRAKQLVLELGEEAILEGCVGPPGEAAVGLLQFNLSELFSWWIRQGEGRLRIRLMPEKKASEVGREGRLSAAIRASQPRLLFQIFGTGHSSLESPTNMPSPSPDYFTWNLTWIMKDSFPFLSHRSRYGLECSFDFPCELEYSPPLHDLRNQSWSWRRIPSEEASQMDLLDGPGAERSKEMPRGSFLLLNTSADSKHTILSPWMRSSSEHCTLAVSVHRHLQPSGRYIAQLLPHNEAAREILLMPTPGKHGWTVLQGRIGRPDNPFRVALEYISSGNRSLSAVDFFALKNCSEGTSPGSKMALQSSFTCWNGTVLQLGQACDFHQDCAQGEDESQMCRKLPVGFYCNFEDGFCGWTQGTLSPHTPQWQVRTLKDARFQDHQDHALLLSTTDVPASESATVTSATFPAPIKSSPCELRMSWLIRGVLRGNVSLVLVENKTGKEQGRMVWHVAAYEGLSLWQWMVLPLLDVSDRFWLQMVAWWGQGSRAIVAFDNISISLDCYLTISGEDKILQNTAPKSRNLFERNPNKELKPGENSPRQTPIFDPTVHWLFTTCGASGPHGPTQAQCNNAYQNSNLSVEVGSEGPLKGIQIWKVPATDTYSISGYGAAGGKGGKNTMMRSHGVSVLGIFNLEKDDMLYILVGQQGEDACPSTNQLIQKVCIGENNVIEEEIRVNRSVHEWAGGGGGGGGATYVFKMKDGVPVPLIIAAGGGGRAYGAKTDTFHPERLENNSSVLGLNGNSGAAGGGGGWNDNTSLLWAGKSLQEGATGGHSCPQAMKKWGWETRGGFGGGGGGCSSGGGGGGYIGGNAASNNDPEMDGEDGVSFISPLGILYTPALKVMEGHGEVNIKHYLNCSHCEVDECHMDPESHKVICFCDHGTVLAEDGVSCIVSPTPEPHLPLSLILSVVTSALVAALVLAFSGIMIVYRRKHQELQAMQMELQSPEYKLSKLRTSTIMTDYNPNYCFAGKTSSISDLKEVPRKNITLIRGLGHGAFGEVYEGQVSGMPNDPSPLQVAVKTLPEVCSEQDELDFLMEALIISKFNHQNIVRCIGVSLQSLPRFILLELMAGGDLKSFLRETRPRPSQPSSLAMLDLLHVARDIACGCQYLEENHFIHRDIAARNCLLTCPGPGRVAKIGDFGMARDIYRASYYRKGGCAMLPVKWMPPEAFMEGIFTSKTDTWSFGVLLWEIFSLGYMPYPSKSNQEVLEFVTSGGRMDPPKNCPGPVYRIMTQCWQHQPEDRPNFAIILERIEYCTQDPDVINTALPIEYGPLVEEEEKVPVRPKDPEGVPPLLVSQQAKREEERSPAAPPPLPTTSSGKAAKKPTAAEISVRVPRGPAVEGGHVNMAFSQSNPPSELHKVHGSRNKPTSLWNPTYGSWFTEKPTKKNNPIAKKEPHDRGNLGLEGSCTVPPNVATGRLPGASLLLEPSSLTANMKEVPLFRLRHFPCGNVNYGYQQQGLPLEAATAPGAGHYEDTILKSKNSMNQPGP
Description: Inhibition of ALK (unknown origin) preincubated for 10 mins followed by addition of substrate and ATP for 25 mins by caliper EZ reader method

NCI-H2228 [13] = test: cells; assay type: functional, cell-based; conditions: Homo sapiens, NCI-H2228, 72 h
MDA-MB-231 [14] = test: Cell cycle arrest in human MDA-MB-231 cells assessed as accumulation of cells at S phase at 4 uM measured after 24 hrs by PI staining based flowcytometry method (reference value: 20.81%); assay type: functional
[15] = target: Histone deacetylase (Homo sapiens) (UniProt Q13547+O15379+Q9UBN7+Q92769+Q9UQL6+Q8WUI4+Q9BY41+Q96DB2+P56524+Q9UKV0+Q969S8); test: Inhibition of HDAC in human MDA-MB-231 cells assessed as increase of intracellular acetylated histone H3 level at 1 to 4 uM measured after 24 hrs by Western blot assay; assay type: cell-based; conditions: dose 1-4 µM
[16] = Potency index, ratio of ceritinib IC50 to test compound IC50 for human SKNBE2 cells harboring wild type ALK assessed as inhibition of cell proliferation measured after 72 hrs by CCK8 assay; assay type: functional
Homo sapiens [17] = species: Homo sapiens; test: Inhibition of human Aurora kinase at 1 uM
HepG2 [18] = test: Potency index, ratio of ceritinib IC50 to test compound IC50 for human HepG2 cells assessed as inhibition of cell proliferation measured after 72 hrs by CCK8 assay; assay type: functional
HepG2 [19] = test: Potency index, ratio of crizotinib IC50 to test compound IC50 for human HepG2 cells assessed as inhibition of cell proliferation measured after 72 hrs by CCK8 assay; assay type: functional
SH-SY5Y [20] = test: Induction of apoptosis in human SH-SY5Y cells assessed as early apoptotic cells at 4 uM measured after 24 hrs by Annexin V-FITC/PI staining based flowcytometry (reference value: 0.82%); assay type: functional
[21] = target: T1, ALK tyrosine kinase receptor; test: Inhibition of ALK (unknown origin) at 100 nM preincubated for 10 mins followed by addition of substrate and ATP for 25 mins by caliper EZ reader method; conditions: time 35.0 min
Target sequence in this assay (Q9UM73 19-1620 limits assumed): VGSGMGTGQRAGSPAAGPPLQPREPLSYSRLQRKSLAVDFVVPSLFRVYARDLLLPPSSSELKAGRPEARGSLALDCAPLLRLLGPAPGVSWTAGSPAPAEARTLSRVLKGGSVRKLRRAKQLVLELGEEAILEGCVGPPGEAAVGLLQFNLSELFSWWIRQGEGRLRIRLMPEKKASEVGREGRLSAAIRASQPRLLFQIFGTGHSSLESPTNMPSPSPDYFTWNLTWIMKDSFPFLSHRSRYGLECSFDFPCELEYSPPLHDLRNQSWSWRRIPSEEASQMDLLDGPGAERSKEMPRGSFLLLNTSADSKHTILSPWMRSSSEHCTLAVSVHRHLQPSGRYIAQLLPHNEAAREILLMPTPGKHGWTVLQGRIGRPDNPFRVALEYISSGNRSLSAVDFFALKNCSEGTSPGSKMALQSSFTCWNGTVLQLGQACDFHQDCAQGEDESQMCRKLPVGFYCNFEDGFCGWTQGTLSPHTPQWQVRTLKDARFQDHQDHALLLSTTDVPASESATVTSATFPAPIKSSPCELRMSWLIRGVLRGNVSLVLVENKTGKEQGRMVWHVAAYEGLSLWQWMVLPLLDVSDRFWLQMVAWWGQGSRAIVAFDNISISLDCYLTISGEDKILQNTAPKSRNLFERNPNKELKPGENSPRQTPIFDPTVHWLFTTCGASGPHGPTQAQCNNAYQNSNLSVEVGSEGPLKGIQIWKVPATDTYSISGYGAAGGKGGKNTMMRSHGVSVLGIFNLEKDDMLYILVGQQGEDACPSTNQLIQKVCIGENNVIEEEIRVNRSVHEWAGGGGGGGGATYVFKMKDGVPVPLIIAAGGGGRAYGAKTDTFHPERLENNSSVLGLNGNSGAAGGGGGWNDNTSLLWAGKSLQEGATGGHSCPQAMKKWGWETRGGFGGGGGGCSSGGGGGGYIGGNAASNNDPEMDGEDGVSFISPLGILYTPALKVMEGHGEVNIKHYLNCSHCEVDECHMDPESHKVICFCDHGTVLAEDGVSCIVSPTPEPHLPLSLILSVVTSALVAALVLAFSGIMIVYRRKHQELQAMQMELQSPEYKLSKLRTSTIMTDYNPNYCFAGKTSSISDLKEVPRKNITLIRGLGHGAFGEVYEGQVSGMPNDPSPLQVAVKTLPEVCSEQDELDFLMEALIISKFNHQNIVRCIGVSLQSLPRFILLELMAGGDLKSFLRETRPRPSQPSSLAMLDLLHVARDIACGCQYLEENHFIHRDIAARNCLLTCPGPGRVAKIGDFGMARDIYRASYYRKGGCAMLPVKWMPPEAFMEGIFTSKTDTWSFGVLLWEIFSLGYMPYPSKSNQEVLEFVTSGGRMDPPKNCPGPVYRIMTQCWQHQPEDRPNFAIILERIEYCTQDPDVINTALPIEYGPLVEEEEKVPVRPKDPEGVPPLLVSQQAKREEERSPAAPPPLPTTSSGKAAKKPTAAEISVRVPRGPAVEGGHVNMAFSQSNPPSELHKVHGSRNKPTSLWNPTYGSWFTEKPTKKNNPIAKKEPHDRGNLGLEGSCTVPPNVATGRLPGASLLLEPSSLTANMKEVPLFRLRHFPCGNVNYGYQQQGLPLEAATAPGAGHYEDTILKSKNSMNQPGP

SH-SY5Y [22] = test: Cell cycle arrest in human SH-SY5Y cells assessed as accumulation of cells at G1 phase at 2 uM measured after 24 hrs by PI staining based flowcytometry method (reference value: 59.8%); assay type: functional
[23] = target: T1, ALK tyrosine kinase receptor; test: Inhibition of ALK (unknown origin) at 10 nM preincubated for 10 mins followed by addition of substrate and ATP for 25 mins by caliper EZ reader method; conditions: time 35.0 min
Target sequence in this assay (Q9UM73 19-1620 limits assumed): as above

MDA-MB-231 [24] = test: Induction of apoptosis in human MDA-MB-231 cells assessed as viable cells at 1 uM measured after 24 hrs by Annexin V-FITC/PI staining based flowcytometry (reference value: 93.14%); assay type: functional; conditions: read-out: Activity
cells = assay type: functional, cell-based; conditions: Homo sapiens, SKNBE2, 72 h
Description: Antiproliferative activity against human SKNBE2 cells harboring wild type ALK assessed as inhibition of cell proliferation measured after 72 hrs by CCK8 assay

MDA-MB-231 [25] = test: Induction of apoptosis in human MDA-MB-231 cells assessed as late apoptotic cells at 4 uM measured after 24 hrs by Annexin V-FITC/PI staining based flowcytometry (reference value: 5.28%); assay type: functional
MDA-MB-231 [26] = test: Cell cycle arrest in human MDA-MB-231 cells assessed as accumulation of cells at G1 phase at 4 uM measured after 24 hrs by PI staining based flowcytometry method (reference value: 55.32%); assay type: functional
[27] = target: T1, ALK tyrosine kinase receptor; test: Inhibition of human ALK in human SH-SY5Y cells assessed as inhibition of ERK phosphorylation at Thr202/Tyr204 residue at 4 uM measured after 24 hrs by Western blot assay; assay type: cell-based
Target sequence in this assay (Q9UM73 19-1620 limits assumed): as above

[28] = Half life in Sprague-Dawley rat at 1 mg/kg, iv measured for 12 hrs by LC-MS/MS analysis; assay type: ADME, organism-based; conditions: in vivo
MDA-MB-231 [29] = test: Induction of apoptosis in human MDA-MB-231 cells assessed as necrotic cells at 2 uM measured after 24 hrs by Annexin V-FITC/PI staining based flowcytometry (reference value: 0.94%); assay type: functional
SH-SY5Y [30] = test: Cell cycle arrest in human SH-SY5Y cells assessed as accumulation of cells at G1 phase at 1 uM measured after 24 hrs by PI staining based flowcytometry method (reference value: 59.8%); assay type: functional
[31] = target: T1, ALK tyrosine kinase receptor; test: Inhibition of ALK in human MDA-MB-231 cells assessed as inhibition of ERK phosphorylation at Thr202/Tyr204 residue at 4 uM measured after 24 hrs by Western blot assay; assay type: cell-based
Target sequence in this assay (Q9UM73 19-1620 limits assumed): as above

MDA-MB-231 [32] = test: Induction of apoptosis in human MDA-MB-231 cells assessed as early apoptotic cells at 4 uM measured after 24 hrs by Annexin V-FITC/PI staining based flowcytometry (reference value: 0.64%); assay type: functional
[33] = Cmax in Sprague-Dawley rat at 1 mg/kg, iv measured for 12 hrs by LC-MS/MS analysis; assay type: ADME, organism-based; set-up: route intravenous, time 12 hrs, dose 1 mg/kg; conditions: in vivo
SH-SY5Y [34] = test: Induction of apoptosis in human SH-SY5Y cells assessed as late apoptotic cells at 2 uM measured after 24 hrs by Annexin V-FITC/PI staining based flowcytometry (reference value: 14.32%); assay type: functional

Chain of Insulin receptor (Homo sapiens) (P06213 28-758 limits assumed): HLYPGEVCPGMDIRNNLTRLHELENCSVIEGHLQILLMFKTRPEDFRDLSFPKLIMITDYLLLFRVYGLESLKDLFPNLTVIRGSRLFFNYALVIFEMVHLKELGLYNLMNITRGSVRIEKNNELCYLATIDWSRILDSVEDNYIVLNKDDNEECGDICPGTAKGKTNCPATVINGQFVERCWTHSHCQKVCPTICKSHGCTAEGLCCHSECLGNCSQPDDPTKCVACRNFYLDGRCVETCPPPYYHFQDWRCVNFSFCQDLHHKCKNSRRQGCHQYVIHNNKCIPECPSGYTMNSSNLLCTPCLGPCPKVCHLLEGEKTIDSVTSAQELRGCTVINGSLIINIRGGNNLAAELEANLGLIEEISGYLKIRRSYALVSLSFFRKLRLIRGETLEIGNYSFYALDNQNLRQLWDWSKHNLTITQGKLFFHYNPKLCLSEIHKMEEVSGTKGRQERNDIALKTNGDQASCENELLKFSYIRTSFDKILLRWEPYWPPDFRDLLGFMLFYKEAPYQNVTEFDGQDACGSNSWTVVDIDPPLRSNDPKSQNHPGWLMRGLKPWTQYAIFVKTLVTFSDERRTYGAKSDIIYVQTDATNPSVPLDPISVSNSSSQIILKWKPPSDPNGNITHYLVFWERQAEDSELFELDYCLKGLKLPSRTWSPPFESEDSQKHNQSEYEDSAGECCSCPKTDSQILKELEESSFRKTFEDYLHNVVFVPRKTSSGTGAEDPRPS
Chain of Insulin receptor (Homo sapiens) (P06213 763-1382 limits assumed): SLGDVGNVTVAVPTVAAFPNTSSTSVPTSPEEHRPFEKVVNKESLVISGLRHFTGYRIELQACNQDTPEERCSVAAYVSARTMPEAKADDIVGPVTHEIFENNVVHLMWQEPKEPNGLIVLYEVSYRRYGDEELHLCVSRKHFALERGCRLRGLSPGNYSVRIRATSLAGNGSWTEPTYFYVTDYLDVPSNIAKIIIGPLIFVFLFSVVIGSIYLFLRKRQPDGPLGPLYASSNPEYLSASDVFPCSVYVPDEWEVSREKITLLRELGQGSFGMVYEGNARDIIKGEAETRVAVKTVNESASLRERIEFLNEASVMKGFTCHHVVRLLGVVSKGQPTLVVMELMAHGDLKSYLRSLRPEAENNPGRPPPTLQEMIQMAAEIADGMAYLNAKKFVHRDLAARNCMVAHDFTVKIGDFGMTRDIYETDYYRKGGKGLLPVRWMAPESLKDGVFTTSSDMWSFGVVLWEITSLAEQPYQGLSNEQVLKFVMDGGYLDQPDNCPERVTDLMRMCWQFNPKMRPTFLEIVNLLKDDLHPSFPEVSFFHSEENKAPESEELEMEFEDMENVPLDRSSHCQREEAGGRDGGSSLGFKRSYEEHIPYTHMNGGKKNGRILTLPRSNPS

With `CC(C)S(=O)(=O)c1ccccc1Nc1nc(Nc2ccc(NC(=O)CCCCCCC(=O)NO)cc2)ncc1Cl` the Activity (MDA-MB-231 [1]) was 3.7%, the “Ratio IC50” value (SH-SY5Y [2]) was 3 and the AUC(0-inf) [3] was 205 ng·h/mL. The inhibition (Homo sapiens [4]) was 95%, the “Ratio IC50” value (MDA-MB-231 [5]) was 3 and the inhibition (MDA-MB-231 [6]) was “Active”. For the same compound, the Activity (SH-SY5Y [7]) was 10.08%, the Activity (MDA-MB-231 [8]) was “Active” and the Activity (MDA-MB-231 [9]) was 5.5%. The inhibition [10] was “Active”, the “Ratio IC50” value (NCI-H2228 [11]) was 3 and the IC50 [12] was 2.1 nM. The IC50 (NCI-H2228 [13]) was 130 nM, the Activity (MDA-MB-231 [14]) was 14.37% and the inhibition [15] was “Active”. The “Ratio IC50” value [16] was 3, the inhibition (Homo sapiens [17]) was 95% and the “Ratio IC50” value (HepG2 [18]) was 3. For the same compound, the “Ratio IC50” value (HepG2 [19]) was 3, the Activity (SH-SY5Y [20]) was 5.34% and the inhibition [21] was 96.6%. The Activity (SH-SY5Y [22]) was 3.56%, the inhibition [23] was 80.8% and the viability at 1 µM (MDA-MB-231 [24]) was 87.9%. It also gave an IC50 (cells) of 50 nM, an Activity (MDA-MB-231 [25]) of 14.85% and an Activity (MDA-MB-231 [26]) of 34.64%. For the same compound, the inhibition [27] was “Active”, the half-life [28] was 25.2 min and the Activity (MDA-MB-231 [29]) was 1.68%. For the same compound, the Activity (SH-SY5Y [30]) was 32.97%, the inhibition [31] was “Active” and the Activity (MDA-MB-231 [32]) was 4.42%. It also gave a Cmax [33] of 1480 ng/mL and an Activity (SH-SY5Y [34]) of 28.89%.

Source: ChEMBL document CHEMBL4828709, “Discovery of 2,4-pyrimidinediamine derivatives as potent dual inhibitors of ALK and HDAC” (Eur J Med Chem, 2021)
